Test results: patent US20150141506A1, “INDANE DIMERS FOR USE IN THE TREATMENT OF AUTOIMMUNE INFLAMMATORY DISEASE” (Venantius Limited, priority 2012, published 2015)
In brackets after ≈: the same amount, converted by molar mass. Entries after “also recorded” stand apart in the source; their conditions may differ. Read-outs that look alike come from different tables or passages of the source. Marks after values point to notes of the source that are not given here.

Key:
[1] = Partition coefficient (Log10 POW) by HPLC method; assay type: physicochemical; conditions: reverse phase C18 HPLC; for Log10 POW, Acid: acidic pH; for Log10 POW, Basic: alkaline pH; for Log10 POW, Neutral: neutral pH
[2] = system: 5% DSS colitis in BALB/c mice; assay: Acute murine 5% DSS colitis model, Experiment 1; assay type: in vivo; conditions: for activity in 5% DSS murine colitis (DAI), in words: 30 mg/kg p.o. daily for 7 days
Description: The study is widely used as a model for studying the pathogenesis of UC and also for screening new therapeutic interventions for the treatment of UC.
In these studies, an acute colitis model was used, with 5% DSS administered in the drinking water of BALB/c mice. This dosage regime induces severe acute colitis, by days 7-8 mice had overt rectal bleeding and marked weight loss; unless sacrificed beforehand, all mice would have died by days 10-12.
Specific Pathogen-Free BALB/c mice, 6-8 weeks of age, were obtained from a commercial supplier (Harlan UK). Mice were fed irradiated diet and housed in individually ventilated cages (Tecniplast UK) under positive pressure.
DSS (5%) was dissolved in drinking water. Compounds were administered orally at a dose of 10 mg/kg or 30 mg/kg on days 0-7, and mice were culled on day 8 or day 9, depending on the severity of the disease. The mice were checked each day for morbidity and the weight of individual mice was recorded. Induction of colitis was determined upon autopsy, length of colon and histology. Colons were recovered and stored at −20° C. for immunological analysis. All of the compounds and experimental groups are randomly alphabetically labelled. Throughout experiments all data recording was performed in a blind manner. The codes on boxes/groups were not broken until after the data was analysed i.e. boxes labelled A, B, C etc were identified as untreated, DSS-treated, or DSS+compound-treated.
To quantify the extent of colitis, a disease activity index (DAI) was determined based on weight loss, faecal blood and stool consistency. A score was given for each parameter, with the sum of the scores used as the DAI. For each treatment group n=8.
All compounds were prepared for oral gavage (0.1 mL per os (p.o.) per 10 g body weight) as a suspension in 0.5% carboxymethyl cellulose/2% Tween 80, at a dose of 3-30 mg/Kg.

[3] = Solubility in Milli-RO water and pH buffers; assay type: physicochemical; conditions: for aqueous solubility, in words: free acid enantiomers
Procedure: The sodium salt, potassium salt, calcium salt, α-methylbenzylamine salt and N-Methyl-(D)-Glucamine salt were synthesised.
The solubility of the four compounds were determined: […]

[4] = system: IL2 release from Jurkat cells; assay: Effect of compounds on IL-2 secretion in T lymphocytes (Jurkat 6.1, anti-CD3/anti-CD28 stimulated, ELISA); assay type: cell-based; conditions: 30 min pre-treatment, 24 h, DMSO control 320.67 (plate 2), 338.25 (plate 3)
Procedure: The T cell line Jurkat 6.1 (ATCC) was used. Cells were pre-treated for 30 min with 1 μM or 10 μM of the respective compound and then stimulated with plate-bound anti-CD3 (BD Pharmingen) and anti-CD28 (AnCell). DMSO was used as vehicle control. […] After 24 hs the supernatant was collected and IL-2 secretion was measured by ELISA.
Compounds were prepared by dissolution in DMSO to yield final concentrations of 1 and 10 μg/ml

[5] = system: 5% DSS colitis in BDF 1 mice; assay: 5% DSS murine colitis, Experiment 2 (Method 2); assay type: in vivo; conditions: day 7, 10 ml/kg oral gavage daily day 0-6, 5-ASA 100 mg/kg; for DAI versus vehicle: 31 at 2 mg/ml, 47 at 4 mg/ml
Description: A total of 90 BDF 1 (H. Pylori-free, murine norovirus-free) male mice (Harlan Laboratories, UK) were used in the study. Animals were 8-10 weeks old on supply and used at 10-12 weeks of age. All mice were held in individually ventilated cages (IVCs) in an SPF (Specific Pathogen Free) barrier unit. The animals were identified by numbered cages and by ear punches.
Mice were randomised into study groups. All the mice in any one cage received the same treatment and were ear punched for identification purposes. Daily body weight measurements were used to calculate the volume of test item or vehicle administered in the applicable groups.
DSS (MP Biomedicals 0216011090, lot# M2709) was prepared as a 5% (w/v) solution in the drinking water and made fresh daily on days 0 to 6 inclusive. DSS was administered from day 0 to day 7.
Test items were stored at −20° C. until the initiation of the study. Each test item was formulated as a homogenous suspension in 0.5% carboxymethyl cellulose (CMC, Sigma C4888) in sterile water (Sigma W3500, lot# RNBC1419), using an Ultraturax homogeniser, on study day −1. Compound 31 was formulated at 2 mg/ml and 47 was formulated at 4 mg/ml. After formulation the test item and the vehicle stocks anonymised with a letter code. All solutions were stored at 4° C. during the study, with 3.8 ml of each suspension being dispensed daily. Test items were administered by oral gavage, daily at 09.00 hrs, at 10 ml/kg, from study day 0 to study day 6.
5-ASA (5-Aminosalicylic acid, Sigma A3537, lot#051M1878V) was aliquoted into pre-weighed amounts between 71 and 84 mg. Like test item suspensions, these aliquots were anonymised by a letter code. […]
Any animal was culled if the weight loss was greater than 20%. Animal well-being was monitored daily. Once daily from day 0 until the end of the study, all mice were weighed and assessed for stool consistency, and the presence of overt blood in the stool or around the anus according to the criteria in 2.1 […]

[6] = day 7, 10 mg/kg daily for 7 days, vehicle 9.3±0.51
[7] = day 7, 30 mg/kg p.o. daily for 7 days, vehicle 9.0±0.53

Structure (SMILES): CNCC(O)C(O)C(O)C(O)CO.O=C(O)c1ccc(C[C@]2(C3=Cc4ccccc4C3)Cc3ccccc3[C@H]2O)cc1 [Compound 7, 6-(Methylamino)hexane-1,2,3,4,5-pentanol 4-(((1S,2R)-1-hydroxy-2,3-dihydro-1H,1′H-2,2′-biinden-2-yl)methyl)benzoate]
- Log10 POW, Acid [1]: 3.8
- Log10 POW, Basic [1]: 3.5
- Log10 POW, Neutral [1]: 3.5
- disease activity index (DAI) [2, 6]: no significant (P>0.05) effect
- solubility, Milli-RO H20 ([3]; Milli-RO water, listed as Compound 5 N-Methyl-D-Glucamine salt): >60,000* μg/mL
- solubility, pH 4.0 Buffer ([3]; pH 4.0 buffer): 0.14 μg/mL
- solubility, pH 7.0 Buffer ([3]; pH 7.0 buffer, listed as Compound 5 N-Methyl-D-Glucamine salt): >60,000* μg/mL
- solubility, pH 9.0 Buffer ([3]; pH 9.0 buffer, listed as Compound 5 N-Methyl-D-Glucamine salt): >60,000* μg/mL

Structure (SMILES): NCC(=O)O[C@@H]1c2ccccc2C[C@@]1(Cc1ccc(C(=O)O)cc1)C1=Cc2ccccc2C1 [Compound 31, 4-{[(1′S,2′S)-1′-(glycyloxy)-1′,3′-dihydro-1H,2′H-2,2′-biinden-2′-yl]methyl}benzoic acid]
- IL-2 production, absolute values ([4]; compound 1 uM): 233.38 pg/mL
- IL-2 production, absolute values ([4]; compound 10 uM): 225.63 pg/mL
- DAI versus vehicle [5]: reduced DAI comparable or equal to 5ASA

Structure (SMILES): O=C(Nc1ccc(O)c(C(=O)O)c1)c1ccc(C[C@@]2(C3=Cc4ccccc4C3)Cc3ccccc3[C@H]2O)cc1 [Compound 47, 2-hydroxy-5-(4-(((1S,2S)-1-hydroxy-2,3-dihydro-1H,1′H-[2,2′-biinden]-2-yl)methyl)benzamido)benzoic acid]
- IL-2 production, absolute values ([4]; compound 1 uM): 99.64 pg/mL
- IL-2 production, absolute values ([4]; compound 10 uM): 98.79 pg/mL
- DAI versus vehicle [5]: reduced DAI comparable or equal to 5ASA
- loss of body weight versus vehicle control ([5]; 47 formulated at 4 mg/ml): does not result in an increase in loss of body weight

Structure (SMILES): O=C(O)c1ccc(C[C@@]2(C3=Cc4ccccc4C3)Cc3ccccc3[C@H]2O)cc1 (single isomer, unassigned) [Compound 2]
- IL-2 production, absolute values ([4]; compound 1 uM): 98.71 pg/mL
- IL-2 production, absolute values ([4]; compound 10 uM): 124.36 pg/mL
- activity in 5% DSS murine colitis (DAI), in words [2]: highly active
- potency compared among the four enantiomers, in words ([2]; 30 and 10 mg/kg): most potent of the four enantiomers
- disease activity index (DAI) [2, 6]: 2.1±0.7
- disease activity index (DAI) [2, 7]: 2.5±0.71
- aqueous solubility, in words [3]: limited aqueous solubility

Structure (SMILES): O=C(O)c1ccc(C[C@@]2(C3=Cc4ccccc4C3)Cc3ccccc3[C@@H]2O)cc1 [Compound 4, 4-(((1R,2S)-1-hydroxy-2,3-dihydro-1H,1′H-2,2′-biinden-2-yl)methyl)benzoic acid]
- IL-2 production, absolute values ([4]; compound 1 uM): 97.21 pg/mL
- IL-2 production, absolute values ([4]; compound 10 uM): 94.21 pg/mL
- activity in 5% DSS murine colitis (DAI), in words [2]: without activity; also recorded: almost devoid of activity

Structure (SMILES): O=C(O)c1ccc(C[C@]2(C3=Cc4ccccc4C3)Cc3ccccc3[C@@H]2O)cc1 (single isomer, unassigned) [Compound 3]
- IL-2 production, absolute values ([4]; compound 1 uM): 150.07 pg/mL
- IL-2 production, absolute values ([4]; compound 10 uM): 98.57 pg/mL
- activity in 5% DSS murine colitis (DAI), in words [2]: minimal activity
- disease activity index (DAI) [2, 7]: 5.3±0.6

Structure (SMILES): O=C(O)c1ccc(C[C@]2(C3=Cc4ccccc4C3)Cc3ccccc3[C@H]2O)cc1 [Compound 5, 4-(((1S,2R)-1-hydroxy-2,3-dihydro-1H,1′H-2,2′-biinden-2-yl)methyl)benzoic acid]
- IL-2 production, absolute values ([4]; compound 1 uM): 127.29 pg/mL
- IL-2 production, absolute values ([4]; compound 10 uM): 134.14 pg/mL
- Log10 POW, Acid [1]: 3.9
- Log10 POW, Basic [1]: 3.7
- Log10 POW, Neutral [1]: 3.7
- activity in 5% DSS murine colitis (DAI), in words [2]: highly active
- disease activity index (DAI) [2, 6]: no significant (P>0.05) effect
- disease activity index (DAI) [2, 7]: 3.2±0.73
- solubility ([3]; Milli-RO water, water, read-out: solubility, Milli-RO H20): 1.38 µg/mL (≈ 3.61 µM)
- aqueous solubility, in words [3]: limited aqueous solubility
- solubility ([3]; pH 4.0 buffer, pH 4, aqueous buffer, read-out: solubility, pH 4.0 Buffer): 0.33 µg/mL (≈ 0.863 µM)
- solubility ([3]; pH 7.0 buffer, pH 7, aqueous buffer, read-out: solubility, pH 7.0 Buffer): 320 µg/mL (≈ 837 µM)
- solubility ([3]; pH 9.0 buffer, pH 9, aqueous buffer, read-out: solubility, pH 9.0 Buffer): 370 µg/mL (≈ 966 µM)

Structure (SMILES): C[C@]12C=CC(=O)C=C1CC[C@@H]1[C@@H]2[C@@H](O)C[C@@]2(C)[C@H]1CC[C@]2(O)C(=O)CO [Prednisolone, reference compound]
- DAI on the day of autopsy versus vehicle controls ([2]; 5 mg/kg): reduced DAI scores
- colon cytokine levels (IL1β, TNFα, IL6) ([2]; day 7, Prednisolone 5 mg/kg): reduced (p<0.05)
- inhibition of colon shortening versus vehicle controls ([2]; day 7, Prednisolone 5 mg/kg): did have a significant effect
- reduction of colonic myeloperoxidase (MPO) activity ([2]; day 7, Prednisolone 5 mg/kg): 54%
- colon pathology (histology score) relative to vehicle ([2]; prednisolone 5 mg/Kg): no significant improvement
